The numbers were not newly measured in patent US7739091B2, “Method for estimating protein-protein binding affinities” (The Research Foundation of State University of New York, priority 2006, dated 2010), which cites them from elsewhere.

The conditions of this series: side chain flanked by peptide bonds, water to n-octanol.
Consider `N[C@@H](Cc1c[nH]cn1)C(=O)O` [His], for which the transfer free energy was 0.92 kcal/mol. Regarding `N[C@@H](CO)C(=O)O` [Ser], the transfer free energy is 0.85 kcal/mol.

Consider `N[C@@H](Cc1ccc(O)cc1)C(=O)O` [Tyr], for which the transfer free energy is -0.8 kcal/mol. For the compound `C[C@H](N)C(=O)O` [Ala], the transfer free energy is 0.87 kcal/mol. Regarding `C[C@@H](O)[C@H](N)C(=O)O` [Thr], the transfer free energy is 0.95 kcal/mol. Regarding `N[C@@H](Cc1ccccc1)C(=O)O` [Phe], the transfer free energy was -1.81 kcal/mol.
